The test deals with T1, recombinant F508del V470 CFTR in Fischer rat thyroid (FRT) cells (Homo sapiens, UniProt P13569, DEL508-508).
T1 construct: expressed in transfected cells
Kind of test: FRT ion flux assay of F508del CFTR potentiation. The test is classed as cell-based. The following applies: FRT cells expressing F508del V470 CFTR, forskolin 20 uM, 27° C. pre-incubation. On the procedure:
FRT Ion Flux Assay of F508del CFTR Potentiation
Fischer rat thyroid (FRT) cell lines stably expressing recombinant F508del V470 CFTR and halide-sensitive yellow fluorescent protein (Pedemonte et al., J. Clin. Invest. 115(9) 2564-71 (2005)) were seeded at 25,000 cells/well in 50 uL/well of culture medium into black-walled, clear bottom tissue-culture-treated 384-well plates (Corning, cat. no. 3712). After one day, the cells were pre-incubated at 27° C./5% CO2 for 16-24 hours. The cells were then washed with dPBS and treated with forskolin (20 uM) and test compound for 30 mi by addition of 20 uL of compound dilution buffer (dPBS containing forskolin and test compound). Plates were loaded into FLIPR384 fluorescence imaging plate reader (Molecular Devices). After an initial fluorescence reading, iodide buffer (25 uL) (composition (in mM): 137 NaI, 1.5 K2PO4, 8.1 NaH2PO4, 2.7 KCl, 0.5 MgCl2, 1 CaCl2) was added and a second fluorescence reading was made after approximately 21 seconds. Data treatment involved division of the second fluorescence reading by the initial fluorescence reading, then scaling of the resulting normalized endpoint fluorescence with respect to the responses for DMSO (0%) and a positive control potentiator (100%).

Each structure is given as a SMILES string.

T1 sequence (P13569 with tags, fused parts or gaps DEL508-508): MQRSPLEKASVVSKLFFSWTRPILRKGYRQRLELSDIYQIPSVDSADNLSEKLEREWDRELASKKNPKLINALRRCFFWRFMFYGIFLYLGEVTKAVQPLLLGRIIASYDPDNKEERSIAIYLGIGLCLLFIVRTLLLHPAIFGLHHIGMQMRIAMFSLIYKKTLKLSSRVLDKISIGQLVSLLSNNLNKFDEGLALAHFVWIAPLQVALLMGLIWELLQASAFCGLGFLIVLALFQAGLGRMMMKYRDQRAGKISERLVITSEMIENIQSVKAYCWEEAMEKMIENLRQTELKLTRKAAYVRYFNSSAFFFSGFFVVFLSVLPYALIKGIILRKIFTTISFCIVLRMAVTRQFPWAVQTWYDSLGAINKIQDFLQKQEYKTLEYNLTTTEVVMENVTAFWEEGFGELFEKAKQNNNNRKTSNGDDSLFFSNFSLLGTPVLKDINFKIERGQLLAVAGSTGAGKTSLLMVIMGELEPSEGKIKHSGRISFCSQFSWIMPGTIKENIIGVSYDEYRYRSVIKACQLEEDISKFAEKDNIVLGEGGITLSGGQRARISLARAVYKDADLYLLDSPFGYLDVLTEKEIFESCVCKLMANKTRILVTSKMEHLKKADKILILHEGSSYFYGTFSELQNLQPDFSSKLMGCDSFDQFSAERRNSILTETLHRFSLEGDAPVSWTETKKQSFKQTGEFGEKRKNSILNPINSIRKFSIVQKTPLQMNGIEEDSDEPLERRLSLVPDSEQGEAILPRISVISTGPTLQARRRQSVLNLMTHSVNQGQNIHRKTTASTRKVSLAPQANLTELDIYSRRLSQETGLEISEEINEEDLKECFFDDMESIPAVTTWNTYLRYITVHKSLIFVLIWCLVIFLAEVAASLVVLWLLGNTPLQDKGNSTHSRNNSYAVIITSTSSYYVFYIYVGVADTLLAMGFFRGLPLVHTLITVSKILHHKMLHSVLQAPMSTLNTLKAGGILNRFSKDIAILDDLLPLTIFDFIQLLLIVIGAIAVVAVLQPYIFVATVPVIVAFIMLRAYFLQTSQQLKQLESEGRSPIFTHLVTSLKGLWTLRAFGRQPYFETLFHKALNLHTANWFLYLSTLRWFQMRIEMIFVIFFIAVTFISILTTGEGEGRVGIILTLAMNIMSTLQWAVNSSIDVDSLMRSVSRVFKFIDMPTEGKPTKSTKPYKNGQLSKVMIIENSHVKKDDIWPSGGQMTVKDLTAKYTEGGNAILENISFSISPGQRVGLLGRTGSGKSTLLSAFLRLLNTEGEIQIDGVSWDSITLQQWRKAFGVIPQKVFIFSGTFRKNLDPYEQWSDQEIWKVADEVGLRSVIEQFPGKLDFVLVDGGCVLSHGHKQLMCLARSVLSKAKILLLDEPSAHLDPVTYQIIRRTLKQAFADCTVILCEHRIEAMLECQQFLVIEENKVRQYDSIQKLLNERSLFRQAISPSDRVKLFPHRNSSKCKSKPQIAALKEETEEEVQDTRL

Take `CCC(c1nnn(-c2ccc(F)cc2F)c1C)n1cc(-c2cnc(C(F)(F)F)nc2)c2c(N)ncnc21` (single isomer, unassigned) [Example 190]: the half-maximal effective concentration (EC50) turned out to be 457 nM.
As for `CCC(c1cn(-c2ccccc2F)nn1)n1cc(-c2cc[nH]n2)c2c(N)ncnc21` (single isomer, unassigned; enantiomer 1) [Example 147, 7-{1-[1-(2-Fluorophenyl)-1H-1,2,3-triazol-4-yl]propyl}-5-(1H-pyrazol-3-yl)-7H-pyrrolo[2,3-d]pyrimidin-4-amine, enantiomer 1], the figure is 479 nM.
For the molecule `CC(c1cn(-c2ccccc2F)nn1)n1cc(-c2cc[nH]n2)c2c(N)ncnc21` (single isomer, unassigned; enantiomer 2) [Example 122, 7-{1-[1-(2-Fluorophenyl)-1H-1,2,3-triazol-4-yl]ethyl}-5-(1H-pyrazol-3-yl)-7H-pyrrolo[2,3-d]pyrimidin-4-amine, enantiomer 2], the EC50 amounted to 1050 nM.
Turning to `CC(c1cn(-c2ccc(F)cc2F)nn1)n1cc(-c2cnc(C(F)(F)F)nc2)c2c(N)ncnc21` (single isomer, unassigned; enantiomer 2) [Example 124, 7-{1-[1-(2,4-Difluorophenyl)-1H-1,2,3-triazol-4-yl]ethyl}-5-[2-(trifluoromethyl)pyrimidin-5-yl]-7H-pyrrolo[2,3-d]pyrimidin-4-amine, enantiomer 2], the EC50 amounted to 1240 nM.
For `CCC(c1cn(-c2ccccc2F)nn1)n1cc(-c2cnc(C(F)F)nc2)c2c(N)ncnc21` (single isomer, unassigned; enantiomer 2) [Example 144, 5-[2-(Difluoromethyl)pyrimidin-5-yl]-7-{1-[1-(2-fluorophenyl)-1H-1,2,3-triazol-4-yl]propyl}-7H-pyrrolo[2,3-d]pyrimidin-4-amine, enantiomer 2], the concentration for a half-maximal effect (EC50) came to 732 nM.
In the case of `CCC(c1cn(-c2ccccc2F)nn1)n1cc(-c2cnc(N(C)C)nc2)c2c(N)ncnc21` (single isomer, unassigned; enantiomer 2) [Example 146, 5-[2-(Dimethylamino)pyrimidin-5-yl]-7-{1-[1-(2-fluorophenyl)-1H-1,2,3-triazol-4-yl]propyl}-7H-pyrrolo[2,3-d]pyrimidin-4-amine, enantiomer 2] it was 1190 nM.
Turning to `CCC(c1c[nH]c(-c2ccc(F)cc2F)n1)n1cc(-c2cnc(C(F)(F)F)nc2)c2c(N)ncnc21` (single isomer, unassigned; enantiomer 2) [Example 178, 7-{1-[2-(2,4-Difluorophenyl)-2H-imidazol-4-yl]propyl}-5-[2-(trifluoromethyl)pyrimidin-5-yl]-7H-pyrrolo[2,3-d]pyrimidin-4-amine, enantiomer 2], the 50% effective concentration (EC50) stood at 850 nM.
In the case of `Cc1c(C(C)n2cc(-c3cnc(C(F)(F)F)nc3)c3c(N)ncnc32)nnn1-c1ccccc1F` (single isomer, unassigned; enantiomer 2) [Example 180, 7-{1-[1-(2-Fluorophenyl)-5-methyl-1H-1,2,3-triazol-4-yl]ethyl}-5-[2-(trifluoromethyl)pyrimidin-5-yl]-7H-pyrrolo[2,3-d]pyrimidin-4-amine, enantiomer 2] it was 1920 nM.
For `CCC(c1cn(-c2ccc(OC)nc2)nn1)n1cc(-c2cnc(C(F)(F)F)nc2)c2c(N)ncnc21` (single isomer, unassigned; enantiomer 2) [Example 310, 7-{1-[1-(6-Methoxypyridin-3-yl)-1H-1,2,3-triazol-4-yl]propyl}-5-[2-(trifluoromethyl)pyrimidin-5-yl]-7H-pyrrolo[2,3-d]pyrimidin-4-amine, enantiomer 2], the EC50 came to 1300 nM.
Take `CC(c1cnc(-c2ccccc2F)[nH]1)n1cc(-c2cccc3ccncc23)c2c(N)ncnc21` (centres unmarked) [Example 61, 7-{1-[2-(2-Fluorophenyl)-1H-imidazol-5-yl]ethyl}-5-(isoquinolin-8-yl)-7H-pyrrolo[2,3-d]pyrimidin-4-amine]: the EC50 came to 1480 nM.
For the molecule `CC(c1cnc(-c2ccccc2F)[nH]1)n1cc(-c2cnc3[nH]ccc3c2)c2c(N)ncnc21` (centres unmarked) [Example 62, 7-{1-[2-(2-Fluorophenyl)-1H-imidazol-5-yl]ethyl}-5-(7H-pyrrolo[2,3-b]pyridin-5-yl)-7H-pyrrolo[2,3-d]pyrimidin-4-amine], the half-maximal effective concentration (EC50) stood at 2220 nM.
As for `Cc1ccc2cc(F)c(-c3cn(C(C)c4cnc(-c5ccccc5F)[nH]4)c4ncnc(N)c34)cc2n1` (centres unmarked) [Example 63, 5-(6-Fluoro-2-methylquinolin-7-yl)-7-{1-[2-(2-fluorophenyl)-1H-imidazol-5-yl]ethyl}-7H-pyrrolo[2,3-d]pyrimidin-4-amine], the figure is 4540 nM; as for `CC(c1cnc(-c2ccccc2F)[nH]1)n1cc(-c2ccc3c(c2)OCC(=O)N3)c2c(N)ncnc21` (centres unmarked) [Example 65, 7-(4-Amino-7-{1-[2-(2-fluorophenyl)-1H-imidazol-5-yl]ethyl}-7H-pyrrolo[2,3-d]pyrimidin-5-yl)-2H-1,4-benzoxazin-3(4H)-one], 1420 nM; as for `COc1cc2c(cc1-c1cn(C(C)c3cnc(-c4ccccc4F)[nH]3)c3ncnc(N)c13)CCC2` (centres unmarked) [Example 69, 7-{1-[2-(2-Fluorophenyl)-1H-imidazol-5-yl]ethyl}-5-(6-methoxy-2,3-dihydro-1H-inden-5-yl)-7H-pyrrolo[2,3-d]pyrimidin-4-amine], 915 nM.
With `CC(c1cnc(-c2ccccc2F)[nH]1)n1cc(-c2cn[nH]c2)c2c(N)ncnc21` (centres unmarked) [Example 71, 7-{1-[2-(2-Fluorophenyl)-1H-imidazol-5-yl]ethyl}-5-(1H-pyrazol-4-yl)-7H-pyrrolo[2,3-d]pyrimidin-4-amine], the EC50 came to 129 nM.
For the molecule `Cn1ncc2ccc(-c3cn(Cc4cn(-c5ccccc5F)nn4)c4ncnc(N)c34)cc21` [Example 73, 7-{[1-(2-Fluorophenyl)-1H-1,2,3-triazol-4-yl]methyl}-5-(1-methyl-1H-indazol-6-yl)-7H-pyrrolo[2,3-d]pyrimidin-4-amine], the EC50 was found to be 320 nM.
As to `Cn1cc2cc(-c3cn(Cc4cn(-c5ccccc5F)nn4)c4ncnc(N)c34)ccc2n1` [Example 76, 7-{[1-(2-Fluorophenyl)-1H-1,2,3-triazol-4-yl]methyl}-5-(2-methyl-2H-indazol-5-yl)-7H-pyrrolo[2,3-d]pyrimidin-4-amine], the EC50 was found to be 2380 nM.
In the case of `Cn1ncc2c(-c3cn(Cc4cn(-c5ccccc5F)nn4)c4ncnc(N)c34)cccc21` [Example 78, 7-{[1-(2-Fluorophenyl)-1H-1,2,3-triazol-4-yl]methyl}-5-(1-methyl-1H-indazol-4-yl)-7H-pyrrolo[2,3-d]pyrimidin-4-amine] it was 1380 nM.
As to `Nc1ncnc2c1c(-c1cnc3[nH]ccc3c1)cn2Cc1cn(-c2ccccc2F)nn1` [Example 80, 7-{[1-(2-Fluorophenyl)-1H-1,2,3-triazol-4-yl]methyl}-5-(7H-pyrrolo[2,3-b]pyridin-5-yl)-7H-pyrrolo[2,3-d]pyrimidin-4-amine], the EC50 was 3780 nM.
In the case of `COc1cc(-c2cn(Cc3cn(-c4ccccc4F)nn3)c3ncnc(N)c23)ccc1C#N` [Example 84, 4-(4-Amino-7-{[1-(2-fluorophenyl)-1H-1,2,3-triazol-4-yl]methyl}-7H-pyrrolo[2,3-d]pyrimidin-5-yl)-2-methoxybenzonitrile], the EC50 came out at 1560 nM.
In the case of `CC(=O)c1ccc(-c2cn(C(C)c3cn(-c4ccccc4F)nn3)c3ncnc(N)c23)s1` (centres unmarked) [Example 91, 1-[5-(4-Amino-7-{1-[1-(2-fluorophenyl)-1H-1,2,3-triazol-4-yl]ethyl}-7H-pyrrolo[2,3-d]pyrimidin-5-yl)thiophen-2-yl]ethanone] it was 111 nM; in that of `CC(c1cn(-c2ccccc2F)nn1)n1cc(-c2cccc3c2cnn3C)c2c(N)ncnc21` (centres unmarked) [Example 92, 7-{1-[1-(2-Fluorophenyl)-1H-1,2,3-triazol-4-yl]ethyl}-5-(1-methyl-1H-indazol-4-yl)-7H-pyrrolo[2,3-d]pyrimidin-4-amine], 2420 nM.
On to `COc1cc2c(cc1-c1cn(C(C)c3cn(-c4ccccc4F)nn3)c3ncnc(N)c13)CCCC2` (centres unmarked) [Example 93, 7-{1-[1-(2-Fluorophenyl)-1H-1,2,3-triazol-4-yl]ethyl}-5-(3-methoxy-5,6,7,8-tetrahydronaphthalen-2-yl)-7H-pyrrolo[2,3-d]pyrimidin-4-amine], for which the EC50 is 691 nM.
Regarding `CC(c1cn(-c2ccccc2F)nn1)n1cc(-c2ccc3c(cnn3C)c2)c2c(N)ncnc21` (centres unmarked) [Example 95, 7-{1-[1-(2-Fluorophenyl)-1H-1,2,3-triazol-4-yl]ethyl}-5-(1-methyl-1H-indazol-5-yl)-7H-pyrrolo[2,3-d]pyrimidin-4-amine], the 50% effective concentration (EC50) was 488 nM.
As for `CC(c1cn(-c2ccccc2F)nn1)n1cc(-c2cnc3ccccc3c2)c2c(N)ncnc21` (centres unmarked) [Example 100, 7-{1-[1-(2-Fluorophenyl)-1H-1,2,3-triazol-4-yl]ethyl}-5-(quinolin-3-yl)-7H-pyrrolo[2,3-d]pyrimidin-4-amine], the EC50 was determined as 277 nM.
With `CC(c1cc(-c2ccccc2F)no1)n1cc(-c2ccc3c(c2)C(=O)N(C)C3)c2c(N)ncnc21` (centres unmarked) [Example 101, 6-(4-Amino-7-{1-[3-(2-fluorophenyl)-1,2-oxazol-5-yl]ethyl}-7H-pyrrolo[2,3-d]pyrimidin-5-yl)-2-methyl-2,3-dihydro-1H-isoindol-1-one], the EC50 was 4060 nM.

One may read the EC50 as the concentration that produces a half-maximal response.
